Test results: ChEMBL document CHEMBL5385886, “Design, synthesis and evaluation of nitric oxide releasing derivatives of 2,4-diaminopyrimidine as novel FAK inhibitors for intervention of metastatic triple-negative breast cancer” (Eur J Med Chem, 2023)
Calls of active or inactive are those of the source. No cut-off for these calls is given here.

Experiments:
Format in all cases: functional, cell-based
MDA-MB-231 [1] = test: Antiproliferative activity against human MDA-MB-231 cells assessed as inhibition of cell proliferation at 5 to 20 uM incubated for 72 hrs by MTT assay; conditions: dose 5-20 µM
MDA-MB-231 [2] = test: Antiproliferative activity against human MDA-MB-231 cells assessed as inhibition of cell proliferation incubated for 72 hrs by MTT assay; conditions: MDA-MB-231, 72 h
MDA-MB-231 [3] = test: Antiproliferative activity against human MDA-MB-231 cells assessed as inhibition of cell proliferation incubated for 72 hrs in presence of 2-(4-((5-chloro-4-((2-(methylcarbamoyl)phenyl)amino)pyrimidin-2-yl)amino)phenyl)acetic acid by MTT assay; conditions: MDA-MB-231, 72 h

## CC1(C)N(O)C(c2ccc(C(=O)O)cc2)=[N+]([O-])C1(C)C
MDA-MB-231 [1]
  Activity: inactive

## O=S(=O)(c1ccccc1)c1c(OCCCCCCCCO)no[n+]1[O-]
MDA-MB-231 [2]
  IC50: 1500 nM
MDA-MB-231 [3]
  IC50: 1220 nM
